This passage reports mortality results from US10091998B2, “Tetrazolinone compound and use thereof” (SUMITOMO CHEMICAL COMPANY, LIMITED, priority 2013, dated 2018).

Molecules are shown by their SMILES. A value given as a limit tells only on which side of the number the result lay.

The subject of the experiment is second-instar larvae of diamondback moth (Plutella xylostella). As to the kind of experiment: Test Example 11: diamondback moth mortality on treated cabbage. The experiment is classed as in vivo. The note with it: 120 h, 500 ppm spray on cabbage, 20 mL per cup, 5 days at 25° C. On the procedure: As a test chemical solution used in the present test example, a water dilution (test chemical solution) was prepared so as to contain a predetermined concentration (500 ppm) of any one compound of the present compounds 1, 15, 17, and 55.
The test chemical solution was sprayed over cabbage in three-leaf stage sowed and grown in a polyethylene at a rate of 20 mL per cup. After drying the chemical solution, the stem and leaf portions were cut and disposed in a 50 mL cup. Five (5) heads of second-instar larvae of diamondback moth (Plutella xylostella) were released and then a lid was put on the cup. After storage at 25° C. for 5 days, the number of the dead insects was counted and mortality was calculated by the following equation. Mortality (%)=(number of dead insects/number of tested insects)×100
The mortality is the share of the test organisms that died. Compound `Cc1cccc(-n2nnn(C)c2=O)c1OCc1ccccc1` [Present Compound 1, 1-(2-phenylmethoxy-3-methylphenyl)-4-methyl-1,4-dihydrotetrazol-5-one] had a mortality at 500 ppm of no less than 80%.

Take `Cc1ccc(-c2ccc(COc3c(C)cccc3-n3nnn(C)c3=O)c(C)c2)cc1` [Present Compound 15]: the mortality at 500 ppm is no less than 80%.

Compound `Cc1cc(-c2ccccc2C)ccc1COc1c(C)cccc1-n1nnn(C)c1=O` [Present Compound 17] registered a mortality at 500 ppm of no less than 80%.

In turn, `COc1ccccc1-c1csc(COc2c(C)cccc2-n2nnn(C)c2=O)n1` [Present Compound 55, 2-({[1-(4,5-dihydro-4-methyl-5-oxo-1H-tetrazol-1-yl)-3-methylphenyl-2-yl]oxy}methyl)-4-(2-methoxyphenyl)thiazole] showed a mortality at 500 ppm of no less than 80%.
